Assay results: PubChem BioAssay AID1919010 (Molecular Pharmacology Branch, DTP, NCI, 2023)

System: Hs578T complex spheroid growth, percent test/control
Assay: Anticancer human tumor Hs578T cell line growth inhibition [AhR];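 also: luminescent viability signal as a proxy for spheroid growth; spheroids exposed to agents for one week after three days of growth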
Settings: for IC50: curve of first compound; for viability, T/C: stronger effect = lower value
Outline: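 Spheroids combined tumor cells with HUVEC endothelial cells and human MSCs as stroma. AhR antagonists were paired with standard or investigational drugs, each dosed in half-log steps down from near clinical Cmax, or from 10 microM where Cmax was unknown.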

[1] = second compound 0.1 µM, first compound 0.0316 µM
[2] = second compound 0.1 µM, first compound 0.1 µM
[3] = second compound 0.1 µM, first compound 0.316 µM
[4] = second compound 0.1 µM, first compound 1 µM
[5] = second compound 0.1 µM, first compound 3.16 µM
[6] = second compound 0.1 µM, first compound 10 µM
[7] = second compound 0.316 µM, first compound 0.0316 µM
[8] = second compound 0.316 µM, first compound 0.1 µM
[9] = second compound 0.316 µM, first compound 0.316 µM
[10] = second compound 0.316 µM, first compound 1 µM
[11] = second compound 0.316 µM, first compound 3.16 µM
[12] = second compound 0.316 µM, first compound 10 µM
[13] = second compound 1 µM, first compound 0.0316 µM
[14] = second compound 1 µM, first compound 0.1 µM
[15] = second compound 1 µM, first compound 0.316 µM
[16] = second compound 1 µM, first compound 1 µM
[17] = second compound 1 µM, first compound 3.16 µM
[18] = second compound 1 µM, first compound 10 µM
[19] = second compound 3.16 µM, first compound 0.0316 µM
[20] = second compound 3.16 µM, first compound 0.1 µM
[21] = second compound 3.16 µM, first compound 0.316 µM
[22] = second compound 3.16 µM, first compound 1 µM
[23] = second compound 3.16 µM, first compound 3.16 µM
[24] = second compound 3.16 µM, first compound 10 µM
[25] = second compound 10 µM, first compound 0.0316 µM
[26] = second compound 10 µM, first compound 0.1 µM
[27] = second compound 10 µM, first compound 0.316 µM
[28] = second compound 10 µM, first compound 1 µM
[29] = second compound 10 µM, first compound 3.16 µM
[30] = second compound 10 µM, first compound 10 µM

| SMILES | IC50 (second compound 0.1 µM) | IC50 (second compound 0.316 µM) | IC50 (second compound 1 µM) | IC50 (second compound 3.16 µM) | IC50 (second compound 10 µM) | viability, T/C [1] | viability, T/C [2] | viability, T/C [3] | viability, T/C [4] | viability, T/C [5] | viability, T/C [6] | viability, T/C [7] | viability, T/C [8] | viability, T/C [9] | viability, T/C [10] | viability, T/C [11] | viability, T/C [12] | viability, T/C [13] | viability, T/C [14] | viability, T/C [15] | also measured |
| --- | --- | --- | --- | --- | --- | --- | --- | --- | --- | --- | --- | --- | --- | --- | --- | --- | --- | --- | --- | --- | --- |
| CC1(C)CCC(CN2CCN(c3ccc(C(=O)NS(=O)(=O)c4ccc(NCC5CCOCC5)c([N+](=O)[O-])c4)c(Oc4cnc5[nH]ccc5c4)c3)CC2)=C(c2ccc(Cl)cc2)C1 + Cc1ccccc1N=Nc1ccc(NC(=O)c2ccnn2C)c(C)c1 | > 10 µM | > 10 µM | > 10 µM | > 10 µM | > 10 µM | 117% | 106% | 100% | 101% | 97.3% | 65.1% | 106% | 106% | 113% | 109% | 95.9% | 65.8% | 103% | 105% | 108% | viability, T/C [16]: 94.8%; viability, T/C [17]: 97.2%; viability, T/C [18]: 75.4%; viability, T/C [19]: 94.7%; viability, T/C [20]: 95.9%; viability, T/C [21]: 102%; viability, T/C [22]: 90.3%; viability, T/C [23]: 89.5%; viability, T/C [24]: 69.3%; viability, T/C [25]: 66.1%; viability, T/C [26]: 65.3%; viability, T/C [27]: 65.9%; viability, T/C [28]: 68.9%; viability, T/C [29]: 67.2%; viability, T/C [30]: 64.3% |
| CC1COCCN1c1cc(C2(S(C)(=N)=O)CC2)nc(-c2ccnc3[nH]ccc23)n1 (stereo not given) + Cc1ccccc1N=Nc1ccc(NC(=O)c2ccnn2C)c(C)c1 | 9.25 µM | > 10 µM | 9.24 µM | > 10 µM | > 10 µM | 110% | 102% | 102% | 96.6% | 77.9% | 47.9% | 101% | 101% | 100% | 93.4% | 76.9% | 52.4% | 94.6% | 102% | 99.5% | viability, T/C [16]: 86.3%; viability, T/C [17]: 73.7%; viability, T/C [18]: 48.1%; viability, T/C [19]: 85.4%; viability, T/C [20]: 93.3%; viability, T/C [21]: 89.7%; viability, T/C [22]: 84.4%; viability, T/C [23]: 69.2%; viability, T/C [24]: 51.4%; viability, T/C [25]: 62.9%; viability, T/C [26]: 62%; viability, T/C [27]: 76.1%; viability, T/C [28]: 68.5%; viability, T/C [29]: 61.6%; viability, T/C [30]: 47.7% |
